“And” between values parts separate entries of the source, which are not always exact repeats. Equal entries are not always repeated.
Experiments:
[1] = molecular target: T1, human PR (Homo sapiens, UniProt P06401); test: PR reporter gene (transactivation) assay, CHO-Gal4/PR; assay type: cell-based; details: up to 10 µM
T1 construct: host or cells: CHO (DSMZ ACC-110), CHO-Gal4/PR
T1 sequence (P06401 679-913 limits assumed): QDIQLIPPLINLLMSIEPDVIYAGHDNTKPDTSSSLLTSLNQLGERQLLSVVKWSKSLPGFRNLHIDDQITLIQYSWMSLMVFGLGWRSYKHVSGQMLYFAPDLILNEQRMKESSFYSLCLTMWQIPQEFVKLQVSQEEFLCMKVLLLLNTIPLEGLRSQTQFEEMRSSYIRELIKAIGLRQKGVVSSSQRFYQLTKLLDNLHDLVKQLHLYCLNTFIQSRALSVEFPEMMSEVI
From the text: To create the CHO-Gal4/GR, CHO-Gal4/PR, and CHO-Gal4/MR reporter cell lines, first CHO cells were stably transfected with a GAL4-UAS-luciferase reporter construct. Then, the LBD of the GR, PR, or MR (GR Gene ID: 2908, PR Gene ID: 5241, MR Gene ID: 4306, respectively) was cloned into pIRES2-EGFP-GAL4 containing the DBD of GAL4 from pFA-AT2, and then co-transfected into the luciferase-reporter construct-containing CHO cells. These reporter cell lines express the respective nuclear hormone receptor LBD-DBD fusion proteins that control luciferase expression of a GAL4-upstream activation sequence (UAS)-luciferase reporter construct, allowing for detection of ligand- or compound-induced transactivation at the GR, PR, or MR by measuring luciferase activity.
Cryo-preserved CHO-Gal4/GR, CHO-Gal4/PR, and CHO-Gal4/MR cells were plated in medium at 7,500 cells/well in 384-well assay plates (25 μL/well), and incubated for 24 h. […] Following a 4-h incubation, cells were lysed and luminescence measured using the EMCCD camera FLIPR®Tetra (Molecular Devices, Silicon Valley, CA, United States).
Transactivation (i.e., gene activation) was expressed as a percentage of the reference agonist activity (Supplementary Material), using Genedata Screener® v15.0.5 software (Basel, Switzerland).
Transactivation was calculated according to this equation: […]

[2] = system: TNF-α–induced IL-6 release from primary fibroblast-like synoviocytes; test: Inhibition of TNF-α–induced IL-6 release by primary FLS from rheumatoid arthritis patients; assay type: cell-based, human; details: for IL-6 concentration: replicate wells 1-3
Method: In this assay, conducted by BioIVT (Hertfordshire, United Kingdom), primary FLS were obtained from three donors with rheumatoid arthritis and seeded at passage 4 in FGM™-2 fibroblast growth medium (Lonza) in 96-well plates at a density of […], and incubated overnight in standard conditions. […] Negative controls were TNF-α alone and culture medium alone, and vehicle control was DMSO (0.1%). IL-6 was measured in collected supernatant using an enzyme-linked immunosorbent assay (ELISA, R&D Systems Minneapolis, MN, United States) according to the manufacturer’s instructions.
% inhibition= compound -maxmin- max ×100

## C[C@]12C=CC(=O)C=C1CC[C@@H]1[C@@H]2[C@@H](O)C[C@@]2(C)[C@H]1CC[C@]2(O)C(=O)CO [Prednisolone]
[1]
  PR transactivation: no detectable transactivation
[2]; Donor 1, compound −5 log M
  IL-6 concentration: 260.7 pg/mL and 224.6 pg/mL and 206.6 pg/mL
[2]; Donor 1, compound −6 log M
  IL-6 concentration: 269.7 pg/mL and 215.6 pg/mL and 206.6 pg/mL
[2]; Donor 1, compound −7 log M
  IL-6 concentration: 292.3 pg/mL and 274.3 pg/mL and 238.1 pg/mL
[2]; Donor 1, compound −8 log M
  IL-6 concentration: 616.3 pg/mL and 483.3 pg/mL and 446.8 pg/mL
[2]; Donor 1, compound −9 log M
  IL-6 concentration: 988.4 pg/mL and 736.4 pg/mL and 685.5 pg/mL
[2]; Donor 1, compound −10 log M
  IL-6 concentration: 880.6 pg/mL and 778.2 pg/mL and 796.8 pg/mL
[2]; Donor 1, compound −11 log M
  IL-6 concentration: 964.9 pg/mL and 801.4 pg/mL and 731.8 pg/mL
[2]; Donor 1, compound −12 log M
  IL-6 concentration: 946.2 pg/mL and 768.9 pg/mL and 708.6 pg/mL
[2]; Donor 1, compound −13 log M
  IL-6 concentration: 1101.6 pg/mL and 838.7 pg/mL and 755.0 pg/mL
[2]; Donor 1, compound −14 log M
  IL-6 concentration: 1106.3 pg/mL and 960.2 pg/mL and 880.6 pg/mL
[2]; Donor 2, compound −5 log M
  IL-6 concentration: 516.5 pg/mL and 385.6 pg/mL and 394.9 pg/mL
[2]; Donor 2, compound −6 log M
  IL-6 concentration: 521.2 pg/mL and 394.9 pg/mL and 381.0 pg/mL
[2]; Donor 2, compound −7 log M
  IL-6 concentration: 554.0 pg/mL and 394.9 pg/mL and 404.3 pg/mL
[2]; Donor 2, compound −8 log M
  IL-6 concentration: 848.1 pg/mL and 695.7 pg/mL and 681.5 pg/mL
[2]; Donor 2, compound −9 log M
  IL-6 concentration: 1338.8 pg/mL and 1045.5 pg/mL and 1157.3 pg/mL
[2]; Donor 2, compound −10 log M
  IL-6 concentration: 1309.2 pg/mL and 1108.6 pg/mL and 1215.9 pg/mL
[2]; Donor 2, compound −11 log M
  IL-6 concentration: 1497.4 pg/mL and 1079.5 pg/mL and 2570.2 pg/mL
[2]; Donor 2, compound −12 log M
  IL-6 concentration: 1427.8 pg/mL and 1215.9 pg/mL and 1123.2 pg/mL
[2]; Donor 2, compound −13 log M
  IL-6 concentration: 2326.4 pg/mL and 1123.2 pg/mL and 1142.7 pg/mL
[2]; Donor 2, compound −14 log M
  IL-6 concentration: 1552.3 pg/mL and 1393.1 pg/mL and 1255.1 pg/mL
[2]; Donor 3, compound −5 log M
  IL-6 concentration: 172.0 pg/mL and 199.6 pg/mL and 166.5 pg/mL
[2]; Donor 3, compound −6 log M
  IL-6 concentration: 170.2 pg/mL and 159.2 pg/mL and 179.4 pg/mL
[2]; Donor 3, compound −7 log M
  IL-6 concentration: 221.8 pg/mL and 220.0 pg/mL and 214.4 pg/mL
[2]; Donor 3, compound −8 log M
  IL-6 concentration: 621.9 pg/mL and 428.5 pg/mL and 386.6 pg/mL
[2]; Donor 3, compound −9 log M
  IL-6 concentration: 645.5 pg/mL and 847.5 pg/mL and 637.6 pg/mL
[2]; Donor 3, compound −10 log M
  IL-6 concentration: 1022.6 pg/mL and 1127.9 pg/mL and 983.0 pg/mL
[2]; Donor 3, compound −11 log M
  IL-6 concentration: 774.8 pg/mL and 813.1 pg/mL and 796.9 pg/mL
[2]; Donor 3, compound −12 log M
  IL-6 concentration: 904.7 pg/mL and 837.4 pg/mL and 859.7 pg/mL
[2]; Donor 3, compound −13 log M
  IL-6 concentration: 956.1 pg/mL and 937.5 pg/mL and 1151.3 pg/mL
[2]; Donor 3, compound −14 log M
  IL-6 concentration: 888.3 pg/mL and 831.3 pg/mL and 947.8 pg/mL
[2]; Homo sapiens, primary FLS from three RA donors, 24 h
  IC50: 5.6 ± 2.3 nM
[2]; primary FLS from three RA donors, 24 h
  Inhibition (efficacy) of TNF-α–induced IL-6 release: 79.8 ± 7.6%

From article PMC11920646 (Frontiers in Pharmacology, 2025)
